{
  "source": "patent EP4268823A1",
  "about": "“COMPOUND FOR TREATING NEUROINFLAMMATION” (Universitätsklinikum Hamburg-Eppendorf, priority 2022, dated 2023)",
  "key": {"[1]": {"system": "primary cortical cultures", "test": "RealTime-Glo cell viability assay, glutamate excitotoxicity", "format": "cell-based, mouse", "settings": "20 µM glutamate-stimulated primary cortical cultures; UNC0642 1 µM pre-treated 24 hours", "procedure": "For primary cortical cultures pregnant C57BL/6J, or G9afl/fl;Snap25-Cre mice were euthanized. To ensure comparability between genotypes, only embryos from heterozygous breeding's were used. Brainstem tissue of each embryo for genotyping was reserved and cortices were isolated, dissociated and cells were plated at a density of 1 × 10^5 cells per 1 cm^2 on poly-D-lysine-coated wells (5 µM Sigma-Aldrich, cat. no. A-003-M). If not stated otherwise, cells were maintained in neurobasal plus medium (supplemented with B27 plus, penicillin, streptomycin and L-glutamine; Gibco, cat. no. A3582901) at 37°C, 5% CO^2 and a relative humidity of 98%, and treated with 1 µM cytarabine (Sigma-Aldrich, cat. no. BP383) at 1 day in vitro (div) to inhibit glial cell proliferation. If no cytarabine was applied cells were maintained in PNBM medium (supplemented with neural cell survival factor, gentamycin and L-glutamine; Lonza). Throughout, cultures after 14-23 div were used for experiments. […]\nRealTime-Glo (Promega, cat. no. G9711) MT cell viability substrate and NanoLuc Enzyme was mixed together, added to neuronal cultures and incubated for 5 hours for equilibration of luminescence signal before respective treatments were applied. Luminescence was acquired with a Spark 10M multimode microplate reader (Tecan) at 37°C and 5% CO2 every 30 min over a total time period of 24 hours. […]"}, "G9a": {"molecular_target": "T1, G9a (Mus musculus, UniProt Q9Z148)", "T1 construct": "UNC0642 pre-treated primary neuronal cultures compared to respective controls; endogenous in cells; host or cells: primary mouse cortical neuronal cultures (C57BL/6J embryos)", "T1 sequence (Q9Z148 1-1263)": "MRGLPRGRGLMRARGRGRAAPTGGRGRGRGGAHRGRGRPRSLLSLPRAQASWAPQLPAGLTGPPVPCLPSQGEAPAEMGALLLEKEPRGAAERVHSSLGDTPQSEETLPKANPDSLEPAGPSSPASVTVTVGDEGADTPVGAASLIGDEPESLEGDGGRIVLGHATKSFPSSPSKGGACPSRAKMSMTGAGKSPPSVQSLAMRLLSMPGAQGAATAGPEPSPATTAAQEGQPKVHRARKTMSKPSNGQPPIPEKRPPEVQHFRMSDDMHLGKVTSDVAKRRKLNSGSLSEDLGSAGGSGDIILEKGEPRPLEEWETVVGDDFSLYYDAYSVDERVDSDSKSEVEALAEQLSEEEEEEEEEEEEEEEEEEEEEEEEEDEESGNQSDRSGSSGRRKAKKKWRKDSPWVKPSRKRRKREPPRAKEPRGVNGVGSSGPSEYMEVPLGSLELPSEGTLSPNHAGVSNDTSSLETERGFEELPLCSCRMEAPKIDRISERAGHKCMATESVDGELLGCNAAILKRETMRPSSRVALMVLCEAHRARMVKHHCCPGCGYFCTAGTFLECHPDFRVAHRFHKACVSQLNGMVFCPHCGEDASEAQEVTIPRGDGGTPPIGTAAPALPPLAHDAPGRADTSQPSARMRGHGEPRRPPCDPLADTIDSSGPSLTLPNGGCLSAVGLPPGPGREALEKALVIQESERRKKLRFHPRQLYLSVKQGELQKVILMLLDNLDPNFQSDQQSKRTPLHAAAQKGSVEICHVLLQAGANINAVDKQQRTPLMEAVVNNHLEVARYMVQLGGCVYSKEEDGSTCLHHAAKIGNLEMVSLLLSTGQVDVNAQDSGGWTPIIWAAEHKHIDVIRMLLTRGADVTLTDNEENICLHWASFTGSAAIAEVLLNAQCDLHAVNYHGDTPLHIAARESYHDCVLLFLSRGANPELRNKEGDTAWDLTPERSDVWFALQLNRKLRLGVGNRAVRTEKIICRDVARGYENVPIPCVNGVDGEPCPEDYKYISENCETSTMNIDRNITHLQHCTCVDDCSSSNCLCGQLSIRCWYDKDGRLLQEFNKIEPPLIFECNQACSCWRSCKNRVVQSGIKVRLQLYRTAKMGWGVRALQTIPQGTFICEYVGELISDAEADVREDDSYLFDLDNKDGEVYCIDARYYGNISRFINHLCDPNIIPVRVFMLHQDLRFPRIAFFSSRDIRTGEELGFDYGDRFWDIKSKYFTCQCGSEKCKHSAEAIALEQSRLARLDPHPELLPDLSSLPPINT", "test": "H3K9me2 / G9a immunofluorescence staining in primary neuronal cultures", "format": "cell-based", "settings": "for induction of H3K9me2 in response to glutamate: primary cortical cultures, glutamate toxicity", "procedure": "(§1) For primary cortical cultures pregnant C57BL/6J, or G9afl/fl;Snap25-Cre mice were euthanized. To ensure comparability between genotypes, only embryos from heterozygous breeding's were used. Brainstem tissue of each embryo for genotyping was reserved and cortices were isolated, dissociated and cells were plated at a density of 1 × 10^5 cells per 1 cm^2 on poly-D-lysine-coated wells (5 µM Sigma-Aldrich, cat. no. A-003-M). If not stated otherwise, cells were maintained in neurobasal plus medium (supplemented with B27 plus, penicillin, streptomycin and L-glutamine; Gibco, cat. no. A3582901) at 37°C, 5% CO^2 and a relative humidity of 98%, and treated with 1 µM cytarabine (Sigma-Aldrich, cat. no. BP383) at 1 day in vitro (div) to inhibit glial cell proliferation. If no cytarabine was applied cells were maintained in PNBM medium (supplemented with neural cell survival factor, gentamycin and L-glutamine; Lonza). Throughout, cultures after 14-23 div were used for experiments. G9a inhibitor UNC0642 was used in a concentration of 1 µM and cultures were pre-treated 24 hours before further experimental procedures.\nImmunocytochemistry was performed as described previously (15). HiPSC-neurons and mouse neurons were cultivated on 12 mm diameter cover slips or on 96-well plates suited for confocal microscopy, fixed with 4% paraformaldehyde (PFA), incubated in 10% normal donkey's serum (NDS) containing 0.25% Triton X-100, and subsequently immunolabeling was performed. Immunostainings were analyzed with a Zeiss LSM 700 confocal microscope."}, "[2]": {"system": "primary neuronal cultures", "test": "Cytosolic calcium imaging of glutamate-exposed neuronal cultures", "format": "cell-based, mouse", "settings": "glutamate-exposed neuronal cultures; UNC0642 pre-treated 24 hours; ferrostatin-1 10 min prior to glutamate", "procedure": "as §1\nPrimary neuronal cultures were seeded on Ibidi 60 µ-Dish Quad (cat. No. 80411) plates. Cultures were infected with an AAV7 containing pAAV-Syn-GCamp6f-WPRE-SV40 (86) (Addgene 100837) at 7-10 div with a 20,000-fold multiplicity of infection (MOI). AAV particles were produced according to the standard procedures of the UKE vector facility. Images were acquired with a confocal LSM 700 laser scanning confocal microscope (Zeiss) every 0.48 seconds with a 20× magnification in an imaging chamber maintaining 37 °C and 5% CO2. Infected cultures were imaged in the respective culture medium. Before applying the indicated chemicals, 5-10 min of baseline activity was first recorded. At the end of the recording, 8 µM ionomycin was applied to induce the maximum cellular calcium response that was used for normalization. For data analysis, mean fluorescence values of every cell were measured using Fiji software (NIH) and normalized to the maximal calcium response after ionomycin challenge. For each cell, mean AUC of the calcium response was calculated using a custom R script."}},
  "data": [
    {"compound": "NC(CCCP(=O)(O)O)C(=O)O", "note": "(stereo not shown) [AP5]", "values": [
      {"measurement": "cell viability", "setting": "[1]", "result": "rescued cellular survival"},
      {"measurement": "induction of H3K9me2 in response to glutamate", "setting": "G9a", "result": "potently suppressed the induction of H3K9me2"}
    ]},
    {"compound": "NCCC[C@](N)(C(=O)O)C(F)F", "note": "[DFMO, alpha-difluoro-methylornithine]", "values": [
      {"measurement": "toxic calcium accumulation (glutamate-induced calcium overload)", "setting": "[2]", "result": "rescued glutamate-induced calcium overload"}
    ]},
    {"compound": "O=C(O)CN(CCOCCOCCN(CC(=O)O)CC(=O)O)CC(=O)O", "note": "[EGTA]", "values": [
      {"measurement": "induction of H3K9me2 in response to glutamate", "setting": "G9a", "result": "potently suppressed the induction of H3K9me2"}
    ]},
    {"compound": "COC(=O)c1ccc(C2c3[nH]c4ccccc4c3CC(C(=O)OC)N2C(=O)CCl)cc1", "note": "(stereo not shown) [RSL3]", "values": [
      {"measurement": "H3K9me2 immunofluorescence after cell death induction", "setting": "G9a; primary cortical neurons, inducer alone vs. control", "result": "significant upregulation of H3K9me2"}
    ]},
    {"compound": "COC1=C(OC)C(=O)C(C/C=C(\\C)CC/C=C(\\C)CC/C=C(\\C)CC/C=C(\\C)CC/C=C(\\C)CC/C=C(\\C)CC/C=C(\\C)CC/C=C(\\C)CC/C=C(\\C)CCC=C(C)C)=C(C)C1=O", "note": "[coenzyme Q10]", "values": [
      {"measurement": "toxic calcium accumulation (glutamate-induced calcium overload)", "setting": "[2]", "result": "rescued glutamate-induced calcium overload"}
    ]},
    {"compound": "CCOC(=O)c1ccc(NC2CCCCC2)c(N)c1", "note": "[ferrostatin-1]", "values": [
      {"measurement": "toxic calcium accumulation (glutamate-induced calcium overload)", "setting": "[2]", "result": "rescued glutamate-induced calcium overload"}
    ]}
  ]
}
